B1: PIF1: GST-tagged human PIF1 helicase (protein, listed as Homo sapiens)
chain: MLSGIEAAAGEYEDSELRCRVAVEELSPGGQPRRRQALRTAELSLGRNERRELMLRLQAPGPAGRPRCFPLRAARLFTRFAEAGRSTLRLPAHDTPGAGAVQLLLSDCPPDRLRRFLRTLRLKLAAAPGPGPASARAQLLGPRPRDFVTISPVQPEERRLRAATRVPDTTLVKRPVEPQAGAEPSTEAPRWPLPVKRLSLPSTKPQLSEEQAAVLRAVLKGQSIFFTGSAGTGKSYLLKRILGSLPPTGTVATASTGVAACHIGGTTLHAFAGIGSGQAPLAQCVALAQRPGVRQGWLNCQRLVIDEISMVEADLFDKLEAVARAVRQQNKPFGGIQLIICGDFLQLPPVTKGSQPPRFCFQSKSWKRCVPVTLELTKVWRQADQTFISLLQAVRLGRCSDEVTRQLQATASHKVGRDGIVATRLCTHQDDVALTNERRLQELPGKVHRFEAMDSNPELASTLDAQCPVSQLLQLKLGAQVMLVKNLSVSRGLVNGARGVVVGFEAEGRGLPQVRFLCGVTEVIHADRWTVQATGGQLLSRQQLPLQLAWAMSIHKSQGMTLDCVEISLGRVFASGQAYVALSRARSLQGLRVLDFDPMAVRCDPRVLHFYATLRRGRSLSLESPDDDEAASDQENMDPIL
modifications: GST tag
notes: GST-tagged human PIF1 helicase

Legend:
[1] = tested on: G4 sequences on custom G4 microarray; test: G4 microarray competition of unlabeled molecule with Cy5-PDS; assay type: binding, human
Excerpt: Whether the microarray platform could be used to reveal the G4-binding specificity of unlabeled molecules via a competition with Cy5-PDS binding was explored. Three example molecules, unlabeled PDS, TMPyP4 (a planar molecule that nonspecifically binds G4 structures^14), and DC-34 (a molecule that selectively binds the MYC G4^15) were examined. […] The binding of unlabeled DC-34 was examined (FIG. 4). There appear to be no features that are better-bound in the presence of DC-34. […] This is consistent with the observation that DC-34 binds the top and bottom surfaces of the G4 and makes specific contacts with purines in the tail sequences.^15 The general properties of features in which DC-34 reduced binding of Cy5-PDS (ratio of PDS/PDS+DC-34) were also examined.
(§1) Microarrays were preincubated with a 100 mM potassium chloride solution for 1 h at RT to induce G4 formation. Protein binding microarray experiments were then performed as previously described.^23 Microarrays were blocked with 4% nonfat dry milk in a potassium phosphate buffer before incubation with proteins or small molecules. Expressed proteins were blocked with 4% nonfat dry milk, ssDNA, and BSA. For the validation experiments, microarrays were also treated with 100 mM lithium chloride to inhibit G4 formation. For experiments examining dsDNA, single-stranded DNA probes were made double-stranded using a primer complementary to a 24-mer constant sequence following the method described previously.^23,24 Double stranding efficiency was monitored using 4% Cy3-dCTP.
(§2) Protein or molecule-bound microarrays were scanned with the G5761A SureScan Dx Microarray Scanner System (Agilent) to detect a Cy5 signal at two laser settings (30 and 100 PMT) to ensure signal intensities were below saturation. Spot intensities from microarray images were extracted using the Agilent Feature Extraction Software and are reported as raw fluorescence units. All binding assays were performed at least twice, with high agreement between replicates (R>0.8). Microarrays with the fewest number of saturated spots were used for further analysis. […] The measured array data (Design 3, PDS) and predictions were normalized using the following
Custom G4 microarrays have been designed that contain a total of 19,249 G4 DNA sequences [31, the entirety of disclosure of which, including the supplemental information, is incorporated herein by reference]. […] After washing to remove the unbound Cy5-PDS and BMVC, the fluorescence intensities of Cy5-PDS bound to DNA oligonucleotides were detected using a fluorescence scanner. The binding selectivity of BMVC to different G4 structures was assessed by measuring the relative fluorescence intensity reduction of Cy5-PDS as BMVC concentration increased. […]

[2] = tested on: genomic G4 sequences (folded G4 structures); test: G4 microarray binding in potassium vs lithium; set-up: species or system human; conditions: GST-tagged proteins
Description: The binding specificities of several molecules were evaluated. Microarrays were preincubated with 100 mM potassium chloride to induce G4 formation. Binding of each molecule is measured by detection of fluorescence intensity at each of the microarray features. BG4 and pyridostatin were conjugated with Cy5. Cellular proteins were expressed as chimeric proteins containing GST, and binding for these proteins was detected using an anti-GST antibody conjugated with Cy5 (Materials and Methods). G4 Structures Fold on DNA Microarrays. To evaluate the utility of DNA microarrays to examine G4-binding specificity, a Cy5-labeled pyridostatin (Cy5-PDS), a small molecule known to bind broadly to G4 structures, was synthesized.^13 A Cy5 conjugated version of BG4 (Cy5-BG4), an antibody developed to bind G4s, was also obtained.^31 FIG. 1A, B presents replicate binding intensities to 15,491 DNA sequences on the Design 3 microarray using either Cy5-PDS or Cy5-BG4. For Cy5-PDS, robust binding is observed at 1 μM, with fluorescence intensities ranging over 100-fold between strongest and weakest bound DNA features. The fluorescence-binding intensities of Cy5-PDS are proportional to the concentration of pyridostatin used). […] Antibody binding to non-G4 features increases with higher concentrations, and in some cases non-G4 sequences are more strongly bound by Cy5-BG4 than G4 sequences, including multiple cytosine-rich negative control sequences. Inhibition of G4 Formation Inhibits Cy5-PDS and Cy5-BG4 Binding. Cy5-PDS and Cy5-BG4 binding under conditions that inhibit G4 formation was examined to evaluate if G4 structures form on the microarray and are required for binding. […] It is noted that many sequences, in addition to the oncogene G4 sequences, are capable of forming G4s. […] For Cy5-BG4, the decrease in binding was up to 270-fold for genomic G4 sequences, while binding to negative controls decreased up to 23-fold (FIG. 1D,). In a second experiment, Cy5-PDS binding following a primer extension reaction that produces dsDNA^24 was examined (see Materials and Methods), anticipating that dsDNA would predominate over G4 formation^13. […] 2,27,28
as §1
Protein or molecule-bound microarrays were scanned with the G5761A SureScan Dx Microarray Scanner System (Agilent) to detect a Cy5 signal at two laser settings (30 and 100 PMT) to ensure signal intensities were below saturation. Spot intensities from microarray images were extracted using the Agilent Feature Extraction Software and are reported as raw fluorescence units. All binding assays were performed at least twice, with high agreement between replicates (R>0.8). Microarrays with the fewest number of saturated spots were used for further analysis. Median intensity was then computed for probes containing identical sequence on each microarray. […]

[3] = tested on: human telomeric G4s; test: G4 microarray direct binding to telomeric G4s; conditions: GST-tagged helicases
Description: as §1
as §2, with “units.” for “units. All binding assays were performed at least twice, with high agreement between replicates (R>0.8). Microarrays with the fewest number of saturated spots were used for further analysis.”
DNA Microarray Binding Experiments DNA microarray experiments were performed and analyzed as described previously. […]

[4] = tested on: G4 sequences and non-G4 ssDNA controls on Design 3 microarray; test: Custom G4 DNA microarray, direct binding by fluorescence intensity; set-up: species or system human
Excerpt: Three Agilent DNA microarrays (TABLE 1) were designed, each with four identical sectors that contain ca.177,440 ssDNA 60-mers to examine G4-binding specificity. Arrays were designed with 9-73 replicates of each unique sequence to ensure statistical significance (TABLE 1). Each microarray contains different sets of G4 variants designed to examine several sequence parameters that affect G4 formation and binding specificity such as loop length (Design 1), loop sequence (Design 2), tail sequence (Design 2), and single nucleotide variants of six known G4s (Design 3). All microarrays include a set of 19 sequences from human telomeres and oncogene promoters known to form G4s with various topologies as positive controls (TABLE 2). Designs 2 and 3 have a set of 295 additional G4-forming sequences from the literature.^30 For the loop length variants, the length of the tails and loops of four different MYC G4 sequences (MYC Pu27, MYC Pu18ntd, MYC Pu22, and MYC Pu22 NMR mutant) was increased up to five times their length. Loop and tail sequences were varied using A, T, G, and C polynucleotide stretches and a subset of combinations. For the loop sequence variants, 4,096 sequences of the form NGGGNGGGNNGGGNGGGN (SEQ ID NO: 2) and 64 variants of the form GGGNGGGNGGGNGGG (SEQ ID NO: 1) were generated. For the tail variants, 256 versions of the major MYC G4 with all possible dinucleotide tails ([…] (SEQ ID NO: 3)) were generated. […]
The binding specificities of several molecules were evaluated. […] Binding of each molecule is measured by detection of fluorescence intensity at each of the microarray features. […] Cellular proteins were expressed as chimeric proteins containing GST, and binding for these proteins was detected using an anti-GST antibody conjugated with Cy5 (Materials and Methods). […] For Cy5-PDS, robust binding is observed at 1 μM, with fluorescence intensities ranging over 100-fold between strongest and weakest bound DNA features. The fluorescence-binding intensities of Cy5-PDS are proportional to the concentration of pyridostatin used). […]

Molecule | effect of lithium chloride (inhibiting G4 formation) on protein binding [2] | binding to hTelomeric (hyb-2 G4) and hTelomeric1 (hyb-1 G4) sequences [3] | other results
NCCOc1cc(C(=O)Nc2cc(OCCN)c3ccccc3n2)nc(C(=O)Nc2cc(OCCN)c3ccccc3n2)c1 [pyridostatin] |  |  | effect of unlabeled competitor on Cy5-PDS binding ([1]; 1 μM Cy5-PDS, various concentrations of unlabeled competitor): no change in binding specificity; binding selectivity profile to different G4 sequences ([1]; 1 μM unlabeled ligand and 1 μM Cy5-PDS): bind less selectively
BLM: GST-tagged human Bloom's syndrome protein helicase | weakened binding | specifically binds the wt hTelomeric sequence that forms hyb-2 G4 | 
CNBP: GST-tagged human cellular nucleic acid binding protein | does not inhibit DNA binding |  | 
IGF2: GST-tagged human insulin-like growth factor II, full length ORF | weakened binding |  | binding specificity, G4 vs non-G4 ssDNA sequences [4]: bind only G4 sequences
WRN: GST-tagged human Werner syndrome RecQ like helicase | weakened binding | can bind both hTelomeric (hyb-2 G4) and hTelomeric1 (hyb-1 G4) sequences | 
B1 | does not inhibit DNA binding |  | 

Source: patent US20210333284A1, “METHODS AND MATERIALS FOR LARGE-SCALE ASSESSMENT OF LIGAND BINDING SELECTIVITY OF G-QUADRUPLEX RECOGNITION USING CUSTOM G4 MICROARRAYS” (Purdue Research Foundation, priority 2020, published 2021)
